Source: paper PMC6273488, “Synthesis and Biological Evaluation of Benzochromenopyrimidinones as Cholinesterase Inhibitors and Potent Antioxidant, Non-Hepatotoxic Agents for Alzheimer’s Disease” (Molecules, 2016)
Like-named read-outs stand apart in the source and are kept apart here.

What was measured:
[1] = molecular target: T1, Electrophorus electricus AChE (EeAChE) (Electrophorus electricus, UniProt O42275); test: Inhibition of EeAChE (Ellman's assay); format: biochemical; details: mean ± SEM, at least three independent experiments
T1 construct: purified AChE from Electrophorus electricus (Type V-S, Sigma-Aldrich); purchased Sigma-Aldrich Type V-S
T1 sequence (O42275 24-633): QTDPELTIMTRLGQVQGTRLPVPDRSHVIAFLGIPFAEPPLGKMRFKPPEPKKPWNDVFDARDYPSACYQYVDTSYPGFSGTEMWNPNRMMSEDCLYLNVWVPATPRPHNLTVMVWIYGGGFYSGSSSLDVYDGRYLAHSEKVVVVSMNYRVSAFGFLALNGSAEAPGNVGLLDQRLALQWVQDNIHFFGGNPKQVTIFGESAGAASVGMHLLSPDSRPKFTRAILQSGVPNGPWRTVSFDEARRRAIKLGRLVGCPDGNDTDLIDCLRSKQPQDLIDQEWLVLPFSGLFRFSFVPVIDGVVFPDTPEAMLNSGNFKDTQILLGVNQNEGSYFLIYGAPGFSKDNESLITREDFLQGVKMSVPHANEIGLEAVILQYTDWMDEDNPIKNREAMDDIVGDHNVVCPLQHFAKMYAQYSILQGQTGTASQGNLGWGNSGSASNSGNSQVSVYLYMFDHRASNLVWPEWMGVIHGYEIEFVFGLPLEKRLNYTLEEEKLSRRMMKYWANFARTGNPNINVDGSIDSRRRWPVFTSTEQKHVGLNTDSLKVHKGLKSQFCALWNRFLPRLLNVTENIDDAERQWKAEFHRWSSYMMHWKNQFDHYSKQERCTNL
Method: (§1) For the preliminary screening of the inhibitory potencies, Electrophorus electricus AChE (EeAChE) and horse serum BuChE (eqBuChE) were used following the Ellman’s assay.
(§2) Assessment of the inhibitory power of BCPOs was performed following the spectrophotometric method of Ellman using purified AChE from Electrophorus electricus (Type V-S, Sigma-Aldrich) or BuChE from horse serum (lyophilized powder, Sigma-Aldrich). Enzymes were first dissolved in 0.1 M phosphate buffer (pH 8.0) and then aliquoted in small vials for easy handling. Compounds stock solutions in DMSO (10 mM) were diluted when necessary with DMSO to prepare appropriate dilutions of each compound. The assay was performed in a final volume of 3 mL of a 0.1 M phosphate-buffered solution at pH 8.0, containing 5,5′-dithiobis-2-nitrobenzoic acid (DTNB, 2625 µL, 0.35 mM, final concentration), EeAChE (29 µL, 0.035 U/mL final concentration) or eqBuChE (60 µL, 0.05 U/mL final concentration) tested compound (3 µL, different concentrations) and 1% (w/v) Bovine Albumin Serum phosphate-buffered (pH 8.0) solution (BSA, 40 µL). The inhibition in comparison to control without compound was determined by pre-incubating this blend at room temperature with each compound at nine different concentrations for 10 min. Then, acetylthiocholine iodide (105 µL, 0.35 mM, final concentration) or butyrylthiocholine iodide (150 µL, 0.5 mM final concentration) was added and incubated for another 15 min at rt. […] Calculation of IC50 values was performed with GraphPad Prism 5. Each concentration was measured in triplicate. Data are expressed as mean ± SEM.

[2] = molecular target: T2, horse serum BuChE (eqBuChE) (Equus caballus, UniProt P81908); test: Inhibition of eqBuChE (Ellman's assay); format: biochemical; details: 10 µM compound
T2 construct: BuChE from horse serum (lyophilized powder, Sigma-Aldrich); purchased Sigma-Aldrich; host or cells: horse serum
T2 sequence (P81908 whole entry): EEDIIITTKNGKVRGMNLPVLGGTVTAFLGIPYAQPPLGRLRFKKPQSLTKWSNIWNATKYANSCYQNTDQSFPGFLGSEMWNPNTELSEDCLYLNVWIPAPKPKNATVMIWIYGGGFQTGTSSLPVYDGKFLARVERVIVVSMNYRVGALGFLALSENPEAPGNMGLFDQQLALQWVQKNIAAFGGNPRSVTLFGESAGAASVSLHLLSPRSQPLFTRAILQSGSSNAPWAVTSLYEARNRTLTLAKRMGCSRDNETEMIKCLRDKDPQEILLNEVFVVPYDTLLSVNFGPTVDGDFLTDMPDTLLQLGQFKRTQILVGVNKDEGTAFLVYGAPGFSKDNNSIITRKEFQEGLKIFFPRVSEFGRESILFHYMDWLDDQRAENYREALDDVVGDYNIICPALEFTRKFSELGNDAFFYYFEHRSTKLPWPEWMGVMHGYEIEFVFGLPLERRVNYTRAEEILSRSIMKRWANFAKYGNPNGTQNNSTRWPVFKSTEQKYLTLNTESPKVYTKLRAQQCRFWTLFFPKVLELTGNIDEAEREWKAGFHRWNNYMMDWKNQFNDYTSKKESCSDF
Method: as §1, §2

[3] = Oxygen radical absorbance capacity by fluorescence (ORAC-FL); details: mean ± SD
Method: Trolox was used as standard, fluorescein as fluorescent probe and 2,2′-azobis(2-amidinopropane) dihydrochloride (AAPH) as the peroxyl radical source. Ferulic acid was used as a positive control.
The antioxidant power of BCPOs was determined following the ORAC-FL method using fluorescein as the fluorescent probe. (±)-6-Hydroxy-2,5,7,8-tetramethylchromane-2-carboxylic acid (Trolox), fluorescein (FL) and AAPH were bought from Sigma-Aldrich (Saint Louis, MO, USA). A Varioskan Flash plate reader with built-in injectors (Thermo Scientific, Waltham, MA, USA) was used. The final volume reaction mixture was 200 µL and the reaction was carried out at 37 °C in 75 mM phosphate buffer (pH 7.4). The tested compounds and Trolox standard were dissolved in DMSO to 10 mM and further diluted in phosphate buffer. The final concentrations were 0.1–1 µM for the tested compounds and 1–8 µM for Trolox standard. The blank was composed of 120 µL of FL, 60 µL of AAPH and 20 µL of phosphate buffer (pH = 7.4) and was added in each assay. The antioxidant (20 µL) and fluorescein (FL, 120 µL, final concentration of 70 nM) were incubated in a black 96-well microplate Nunc, purchazed from Thermo Fisher Scientific, Ecublens, Switzerland) for 15 min at 37 °C. Then, AAPH, 60 µL, final concentration of 12 mM) solution was added quickly using the built-in injector. […] The microplate was automatically shaken prior to each reading. All the experiments were made in triplicate and at least three different assays were performed for each sample.
Using MS Excel software, regression equations were extrapolated by plotting the net AUC against the antioxidant concentration. The ORAC values were then obtained by dividing the slope of the latter curve between the slope of the Trolox curve obtained in the same assay. Final ORAC values were expressed as Trolox equivalents. Data are expressed as mean ± SD.

[4] = ORAC-FL, cited from earlier work
in vitro = details: for Papp: PAMPA, pH 7.4
Method: Penetration across the BBB is an essential property for compounds targeting the CNS. […] The filter membrane of the donor plate was coated with PBL (Polar Brain Lipid, Avanti, AL, USA) in dodecane (4 µL of 20 mg/mL PBL in dodecane) and the acceptor well was filled with 300 µL of PBS pH 7.4 buffer ([…]). Tested compounds were dissolved first in DMSO and that diluted with PBS pH 7.4 to reach the final concentration 100 µM in the donor well. […] 300 µL of the donor solution was added to the donor wells ([…]) and the donor filter plate was carefully put on the acceptor plate so that coated membrane was “in touch” with both donor solution and acceptor buffer. Test compound diffused from the donor well through the lipid membrane (Area = 0.28 cm^2) to the acceptor well. The concentration of the drug in both donor and the acceptor wells was assessed after 3, 4, 5 and 6 h of incubation in quadruplicate using the UV plate reader Synergy HT (Biotek, Winooski, VT, USA) at the maximum absorption wavelength of each compound.

Structure (SMILES): O=c1c2c(nc3n1CCC3)Oc1ccc3ccccc3c1C2c1ccccc1 (centres unmarked) [3Aa, 14-Phenyl-10,11-dihydro-14H-benzo[5,6]chromeno[2,3-d]pyrrolo[1,2-a]pyrimidin-13(9H)-one]
- IC50 [1]: 518 ± 87.9 nM
- inhibition at 10 µM [2]: 12.1 ± 1.4%
- ORAC [3]: 2.6 ± 0.1 Trolox equivalents

Structure (SMILES): O=c1c2c(nc3n1CCCCC3)Oc1ccc3ccccc3c1C2c1ccccc1 (centres unmarked) [3Ac, 16-Phenyl-10,11,12,13,-tetrahydro-16H-benzo[5,6]chromeno[2′,3′,4,5]pyrimido[1,2-a]azepin-15(9H)-one]
- IC50 [1]: 301 ± 6.5 nM
- inhibition at 10 µM [2]: 28.4 ± 7.3%
- ORAC [3]: 2.5 ± 0.2 Trolox equivalents

Structure (SMILES): COc1cccc(C2c3c(nc4n(c3=O)CCCCC4)Oc3ccc4ccccc4c32)c1 (centres unmarked) [3Bc, 16-(3′-Methoxyphenyl)-10,11,12,13-tetrahydro-16H-benzo[5,6]chromeno[2′,3′,4,5]pyrimido[1,2-a]azepin-15(9H)-one]
- IC50 [1]: 108 ± 7.2 nM
- inhibition at 10 µM [2]: < 10%
- ORAC [3]: 3.5 ± 0.3 Trolox equivalents

Structure (SMILES): Cc1ccc(C2c3c(nc4n(c3=O)CCC4)Oc3ccc4ccccc4c32)cc1 (centres unmarked) [3Ca, 14-(4′-Methylphenyl)-10,11-dihydro-14H-benzo[5,6]chromeno[2,3-d]pyrrolo[1,2-a]pyrimidin-13(9H)-one]
- IC50 [1]: 112 ± 21.7 nM
- inhibition at 10 µM [2]: 17.4 ± 1.8%
- ORAC [3]: 2.7 ± 0.3 Trolox equivalents

Structure (SMILES): Cc1ccc(C2c3c(nc4n(c3=O)CCCCC4)Oc3ccc4ccccc4c32)cc1 (centres unmarked) [3Cc, 16-(4’-Methylphenyl)-10,11,12,13-tetrahydro-16H-benzo[5,6]chromeno[2′,3′,4,5]pyrimido[1,2-a]azepin-15(9H)-one]
- IC50 [1]: 167 ± 7.8 nM
- inhibition at 10 µM [2]: < 10%
- ORAC [3]: 3.1 ± 0.2 Trolox equivalents

Structure (SMILES): O=c1c2c(nc3n1CCC3)Oc1c(ccc3ccccc13)C2c1ccccc1 (centres unmarked) [4Aa, 7-Phenyl-11,12-dihydro-7H-benzo[7,8]chromeno[2,3-d]pyrrolo[1,2-a]pyrimidin-8(10H)-one]
- IC50 [1]: 318 ± 26 nM
- inhibition at 10 µM [2]: 23.1 ± 3.1%
- ORAC [3]: 2.1 ± 0.1 Trolox equivalents

Structure (SMILES): O=c1c2c(nc3n1CCCC3)Oc1c(ccc3ccccc13)C2c1ccccc1 (centres unmarked) [4Ab, 7-Phenyl-10,11,12,13-tetrahydro-7H-benzo[7,8]chromeno[2,3-d]pyrido[1,2-a]pyrimidin-8-one]
- IC50 [1]: 384 ± 19.4 nM
- inhibition at 10 µM [2]: 54.6 ± 1.8%
- ORAC [3]: 2.3 ± 0.2 Trolox equivalents

Structure (SMILES): O=c1c2c(nc3n1CCCCC3)Oc1c(ccc3ccccc13)C2c1ccccc1 (centres unmarked) [4Ac, 7-Phenyl-11,12,13,14-tetrahydro-7H-benzo[7,8]chromeno[2′,3′,4,5]pyrimido[1,2-a]azepin-8(10H)-one]
- IC50 [1]: 290 ± 8.3 nM
- inhibition at 10 µM [2]: 24.2 ± 3.1%
- ORAC [3]: 2.5 ± 0.1 Trolox equivalents

Structure (SMILES): COc1cccc(C2c3ccc4ccccc4c3Oc3nc4n(c(=O)c32)CCC4)c1 (centres unmarked) [4Ba, 7-(3′-Methoxyphenyl)-11,12-dihydro-7H-benzo[7,8]chromeno[2,3-d]pyrrolo[1,2-a]pyrimidin-8(10H)-one]
- IC50 [1]: 327 ± 38.9 nM
- inhibition at 10 µM [2]: 38 ± 1.6%
- ORAC [3]: 3.8 ± 0.1 Trolox equivalents

Structure (SMILES): COc1cccc(C2c3ccc4ccccc4c3Oc3nc4n(c(=O)c32)CCCC4)c1 (centres unmarked) [4Bb, 7-(3′-Methoxyphenyl)-10,11,12,13-tetrahydro-7H-benzo[7,8]chromeno[2,3-d]pyrido[1,2-a]pyrimidin-8-one]
- IC50 [1]: 153 ± 3.1 nM
- inhibition at 10 µM [2]: < 10%
- ORAC [3]: 3.7 ± 0.2 Trolox equivalents

Structure (SMILES): COc1cccc(C2c3ccc4ccccc4c3Oc3nc4n(c(=O)c32)CCCCC4)c1 (centres unmarked) [4Bc, 7-(3′-Methoxyphenyl)-11,12,13,14-tetrahydro-7H-benzo[7,8]chromeno[2′,3′,4,5]pyrimido[1,2-a]azepin-8(10H)-one]
- IC50 [1]: 195 ± 6.2 nM
- inhibition at 10 µM [2]: 31.1 ± 2.1%
- ORAC [3]: 3.4 ± 0.2 Trolox equivalents

Structure (SMILES): Cc1ccc(C2c3ccc4ccccc4c3Oc3nc4n(c(=O)c32)CCC4)cc1 (centres unmarked) [4Ca, 7-(4′-Methylphenyl)-11,12-dihydro-7H-benzo[7,8]chromeno[2,3-d]pyrrolo[1,2-a]pyrimidin-8(10H)-one]
- IC50 [1]: 116 ± 6.2 nM
- inhibition at 10 µM [2]: 26.8 ± 2.9%
- ORAC [3]: 3.2 ± 0.1 Trolox equivalents

Structure (SMILES): Cc1ccc(C2c3ccc4ccccc4c3Oc3nc4n(c(=O)c32)CCCC4)cc1 (centres unmarked) [4Cb, 7-(4′-Methylphenyl)-10,11,12,13-tetrahydro-7H-benzo[7,8]chromeno[2,3-d]pyrido[1,2-a]pyrimidin-8-one]
- IC50 [1]: 193 ± 18.7 nM
- inhibition at 10 µM [2]: 24.4 ± 1.2%
- ORAC [3]: 2.9 ± 0.1 Trolox equivalents

Structure (SMILES): Cc1ccc(C2c3ccc4ccccc4c3Oc3nc4n(c(=O)c32)CCCCC4)cc1 (centres unmarked) [4Cc, 17-(4′-Methylphenyl)-11,12,13,14-tetrahydro-7H-benzo[7,8]chromeno[2′,3′,4,5]pyrimido[1,2-a]azepin-8(10H)-one]
- IC50 [1]: 174 ± 5.9 nM
- inhibition at 10 µM [2]: < 10%
- ORAC [3]: 3.6 ± 0.2 Trolox equivalents

Structure (SMILES): COc1cc(/C=C/C(=O)O)ccc1O [Ferulic acid]
- ORAC [4]: 3.7 ± 0.1 [22] Trolox equivalents
- ORAC ([4]; listed as ferulic acid): 3.7 Trolox equivalents

Structure (SMILES): CN1C(C(=O)Nc2ccccn2)=C(O)c2ccccc2S1(=O)=O [Piroxicam, reference compound]
- Papp (in vitro): 2.2 ± 0.15 ×10⁻⁶ cm/s
- BBB Penetration Estimation CNS (+/−) (in vitro; PAMPA-BBB class): CNS (+/−) (‘CNS (+/−) (BBB permeability uncertain); Pe (10^−6 cm·s^−1) from 4.0 to 2.0)

Structure (SMILES): CCN(C)C(=O)Oc1cccc([C@H](C)N(C)C)c1 [Rivastigmine, reference compound]
- Papp (in vitro): 6.6 ± 0.5 ×10⁻⁶ cm/s
